This is an account of results in patent publication US9795139B2, “Molecules having pesticidal utility, and intermediates, compositions, and processes, related thereto” (priority 2015, dated 2017).

Structures are written as SMILES.

Experiment [1] deals with Beet Armyworm (Spodoptera exigua, LAPHEG). As to the kind of experiment: Bioassay on Beet Armyworm (BAW), 128-well diet tray assay. Format: in vivo. The following applies: 168 h, 50 μg/cm^2 on artificial diet, second instar larvae, 25° C., five to seven days, average of eight wells, read-out: BAW % Control (or Mortality) rating. The procedure:
(§1) Certain molecules disclosed in this document were tested against BAW and CL using procedures described in the following examples. In the reporting of the results, the “BAW & CL Rating Table” was used (See Table Section).
Bioassays on BAW were conducted using a 128-well diet tray assay. One to five second instar BAW larvae were placed in each well (3 mL) of the diet tray that had been previously filled with approximately 1.5 mL of artificial diet to which 50 μg/cm^2 of the test molecule (dissolved in 50 μL of 90:10 acetone-water mixture) had been applied (to each of eight wells) and then allowed to dry. Trays were covered with a clear self-adhesive cover, vented to allow gas exchange, and held at 25° C., 14:10 light-dark for five to seven days. Percent mortality was recorded for the larvae in each well; activity in the eight wells was then averaged. The results are indicated in the table entitled “Table ABC: Biological Results” (See Table Section).

Experiment [2] concerns Cabbage Looper (Trichoplusia ni, TRIPNI). The experiment in a line: Bioassay on Cabbage Looper (CL), 128-well diet tray assay. Format: in vivo. The following applies: 168 h, 50 μg/cm^2 on artificial diet, second instar larvae, 25° C., five to seven days, average of eight wells, read-out: CL % Control (or Mortality) rating. Here is the method:
as §1
Bioassays on CL were conducted using a 128-well diet tray assay. one to five second instar CL larvae were placed in each well (3 mL) of the diet tray that had been previously filled with 1 mL of artificial diet to which 50 μg/cm^2 of the test molecule (dissolved in 50 μL of 90:10 acetone-water mixture) had been applied (to each of eight wells) and then allowed to dry. Trays were covered with a clear self-adhesive cover, vented to allow gas exchange, and held at 25° C., 14:10 light-dark for five to seven days. Percent mortality was recorded for the larvae in each well; activity in the eight wells was then averaged. The results are indicated in the table entitled “Table ABC: Biological Results” (See Table Section).

As a reminder, the mortality is the share of the test organisms that died. Regarding `N#CC1(NC(=O)c2cc(NC(=O)[C@H]3[C@H](c4cc(Br)cc(Br)c4)C3(Cl)Cl)ccc2Cl)CC1` (relative stereo) [Molecule F29, trans-2-Chloro-N-(1-cyanocyclopropyl)-5-(2,2-dichloro-3-(3,5-dibromophenyl)cyclopropanecarboxamido)benzamide], the mortality at 50 µg/cm2 in experiment [1] and in experiment [2] was 50 to 100% in each case.
`O=C(NC1CC(F)(F)C1)c1cc(NC(=O)[C@H]2[C@H](c3cc(Cl)cc(C(F)(F)F)c3)C2(Cl)Cl)ccc1Cl` (relative stereo) [Molecule F26, trans-2-Chloro-5-(2,2-dichloro-3-(3-chloro-5-(trifluoromethyl)phenyl)cyclopropanecarboxamido)-N-(3,3-difluorocyclobutyl)benzamide]: the mortality at 50 µg/cm2 in experiment [1] and in experiment [2] was 50 to 100% each time.
On to `O=C(NC1CC(F)(F)C1)c1cc(NC(=O)[C@H]2[C@H](c3cc(Cl)c(Cl)cc3Cl)C2(Cl)Cl)ccc1Cl` (relative stereo) [Molecule F20, trans-2-Chloro-5-(2,2-dichloro-3-(2,4,5-trichlorophenyl)cyclopropanecarboxamido)-N-(3,3-difluorocyclobutyl)benzamide], for which the mortality at 50 µg/cm2 in experiment [1] and in experiment [2] was 50 to 100% each time.
As to `O=C(NC1CC(F)(F)C1)c1cc(NC(=O)[C@H]2[C@H](c3cc(Cl)c(Cl)c(Cl)c3)C2(Cl)Cl)ccc1Cl` (relative stereo) [Molecule F6, trans-2-Chloro-5-(2,2-dichloro-3-(3,4,5-trichlorophenyl)cyclopropanecarboxamido)-N-(3,3-difluorocyclobutyl)benzamide], the mortality at 50 µg/cm2 in experiment [1] and in experiment [2] was 50 to 100% each time.
On to `O=C(NC1C[S+]([O-])C1)c1cc(NC(=O)C2C(c3cc(Cl)c(Cl)c(Cl)c3)C2(Cl)Cl)ccc1Cl` (single isomer, unassigned) [Molecule F56, trans-2-chloro-5-(2,2-dichloro-3-(3,4,5-trichlorophenyl)cyclopropanecarboxamido)-N-(1-oxidothietan-3-yl)benzamide], for which the mortality at 50 µg/cm2 in experiment [1] and in experiment [2] was 50 to 100% each time.
As for `N#CC1(NC(=O)c2cc(NC(=O)[C@H]3[C@H](c4ccc(C(F)(F)F)cc4)C3(Cl)Cl)ccc2Cl)CC1` (relative stereo) [Molecule F23, trans-2-Chloro-N-(1-cyanocyclopropyl)-5-(2,2-dichloro-3-(4-(trifluoromethyl)phenyl)cyclopropanecarboxamido)benzamide], the mortality at 50 µg/cm2 in experiment [1] and in experiment [2] was 50 to 100% in each case.
Take `N#CC1(NC(=O)c2cc(NC(=O)[C@H]3[C@H](c4cc(Cl)c(F)c(Cl)c4)C3(Cl)Cl)ccc2Cl)CC1` (relative stereo) [Molecule F31, trans-2-Chloro-N-(1-cyanocyclopropyl)-5-(2,2-dichloro-3-(3,5-dichloro-4-fluorophenyl)cyclopropanecarboxamido)benzamide]: the mortality at 50 µg/cm2 in experiment [1] and in experiment [2] was 50 to 100% each time.
Take `O=C(NC1CC(F)(F)C1)c1cc(NC(=O)[C@H]2[C@H](c3cc(C(F)(F)F)cc(C(F)(F)F)c3)C2(Cl)Cl)ccc1Cl` (relative stereo) [Molecule F24, trans-5-(3-(3,5-Bis(trifluoromethyl)phenyl)-2,2-dichlorocyclopropanecarboxamido)-2-chloro-N-(3,3-difluorocyclobutyl)benzamide]: the mortality at 50 µg/cm2 in experiment [1] and in experiment [2] was 50 to 100% throughout.
As for `CN(C(=O)c1cc(NC(=O)[C@H]2[C@H](c3cc(Cl)cc(Cl)c3)C2(Cl)Cl)ccc1Cl)C1(C#N)CC1` (relative stereo) [PF20, trans-2-Chloro-N-(1-cyanocyclopropyl)-5-(2,2-dichloro-3-(3,5-dichloro-phenyl)cyclopropane-1-carboxamido)-N-methylbenzamide], the mortality at 50 µg/cm2 in experiment [1] and in experiment [2] was 50 to 100% each time.
In the case of `O=C(NC1CCSC1)c1cc(NC(=O)[C@H]2[C@H](c3cc(Cl)cc(Cl)c3)C2(Cl)Cl)ccc1Cl` (relative stereo) [Molecule F7, trans-2-Chloro-5-(2,2-dichloro-3-(3,5-dichlorophenyl)cyclopropanecarboxamido)-N-(tetrahydrothiophen-3-yl)benzamide], the mortality at 50 µg/cm2 in experiment [1] and in experiment [2] was 50 to 100% in each case.
As to `O=C(NC1CC(F)(F)C1)c1cc(NC(=O)[C@H]2[C@H](c3cc(Br)cc(Br)c3)C2(Cl)Cl)ccc1Cl` (relative stereo) [Molecule F28, trans-2-Chloro-5-(2,2-dichloro-3-(3,5-dibromophenyl)cyclopropanecarboxamido)-N-(3,3-difluorocyclobutyl)benzamide], the mortality at 50 µg/cm2 in experiment [1] and in experiment [2] was 50 to 100% in each case.
`O=C(NC1CN(C(=O)C(F)(F)F)C1)c1cc(NC(=O)[C@H]2[C@H](c3cc(Cl)cc(Cl)c3)C2(Cl)Cl)ccc1Cl` (relative stereo) [Molecule F60, trans-2-chloro-5-(2,2-dichloro-3-(3,5-dichlorophenyl)cyclopropanecarboxamido)-N-(1-(2,2,2-trifluoroacetyl)azetidin-3-yl)benzamide]: the mortality at 50 µg/cm2 in experiment [1] and in experiment [2] was 50 to 100% each time.
`O=C(NC1CC(F)(F)C1)c1cc(NC(=O)[C@H]2[C@H](c3cc(Cl)c(F)c(Cl)c3)C2(Cl)Cl)ccc1Cl` (relative stereo) [Molecule F30, trans-2-Chloro-5-(2,2-dichloro-3-(3,5-dichloro-4-fluorophenyl)cyclopropanecarboxamido)-N-(3,3-difluorocyclobutyl)benzamide]: the mortality at 50 µg/cm2 in experiment [1] and in experiment [2] was 50 to 100% in each case.
Regarding `N#CC1(NC(=O)c2cc(NC(=O)[C@H]3[C@H](c4cc(C(F)(F)F)cc(C(F)(F)F)c4)C3(Cl)Cl)ccc2Cl)CC1` (relative stereo) [Molecule F25, trans-5-(3-(3,5-Bis(trifluoromethyl)phenyl)-2,2-dichlorocyclopropanecarboxamido)-2-chloro-N-(1-cyanocyclopropyl)benzamide], the mortality at 50 µg/cm2 in experiment [1] and in experiment [2] was 50 to 100% throughout.
For the compound `O=C(NC1CC(F)(F)C1)c1cc(NC(=O)[C@H]2[C@H](c3ccccc3)C2(Cl)Cl)ccc1Cl` (relative stereo) [Molecule F37, trans-2-Chloro-5-(2,2-dichloro-3-phenylcyclopropanecarboxamido)-N-(3,3-difluorocyclobutyl)benzamide], the mortality at 50 µg/cm2 in experiment [1] and in experiment [2] was 50 to 100% in each case.
`N#CC1(NC(=O)c2cc(NC(=O)[C@H]3[C@H](c4cc(Cl)cc(C(F)(F)F)c4)C3(Cl)Cl)ccc2Cl)CC1` (relative stereo) [Molecule F27, trans-2-Chloro-N-(1-cyanocyclopropyl)-5-(2,2-dichloro-3-(3-chloro-5-(trifluoromethyl)phenyl)cyclopropanecarboxamido)benzamide]: the mortality at 50 µg/cm2 in experiment [1] and in experiment [2] was 50 to 100% each time.
As to `Cc1cc(Cl)cc([C@H]2[C@H](C(=O)Nc3ccc(Cl)c(C(=O)NC4(C#N)CC4)c3)C2(Cl)Cl)c1` (relative stereo) [Molecule F47, trans-2-Chloro-N-(1-cyanocyclopropyl)-5-(2,2-dichloro-3-(3-chloro-5-methylphenyl)cyclopropanecarboxamido)benzamide], the mortality at 50 µg/cm2 in experiment [1] and in experiment [2] was 50 to 100% in each case.
Take `N#CC1(NC(=O)c2cc(NC(=O)[C@H]3[C@H](c4ccc(Cl)c(F)c4)C3(Cl)Cl)ccc2Cl)CC1` (relative stereo) [PF2, trans-2-Chloro-N-(1-cyanocyclopropyl)-5-(2,2-dichloro-3-(4-chloro-3-fluorophenyl)cyclopropane-1-carboxamido)benzamide]: the mortality at 50 µg/cm2 in experiment [1] and in experiment [2] was 50 to 100% throughout.
For the compound `Cc1c(Cl)cc([C@H]2[C@H](C(=O)Nc3ccc(Cl)c(C(=O)NC4(C#N)CC4)c3)C2(Cl)Cl)cc1Cl` (relative stereo) [Molecule F49, trans-2-Chloro-N-(1-cyanocyclopropyl)-5-(2,2-dichloro-3-(3,5-dichloro-4-methylphenyl)cyclopropanecarboxamido)benzamide], the mortality at 50 µg/cm2 in experiment [1] and in experiment [2] was 50 to 100% throughout.
As to `N#CC1(NC(=O)c2cc(NC(=O)[C@H]3[C@H](c4ccccc4)C3(Cl)Cl)ccc2Cl)CC1` (relative stereo) [Molecule F38, trans-2-Chloro-N-(1-cyanocyclopropyl)-5-(2,2-dichloro-3-phenylcyclopropanecarboxamido)benzamide], the mortality at 50 µg/cm2 in experiment [1] and in experiment [2] was 50 to 100% each time.
